Experimental data taken from ChEMBL document CHEMBL3734721 (J Med Chem, 2015).

Columns and labels:
[1] = Intrinsic clearance in rat liver microsomes at 1 uM by HPLC/MS/MS analysis; type: ADME; conditions: read-out: CLH
[2] = target: T1, Cytochrome P450 1A2 (Homo sapiens, UniProt P05177); assay: Inhibition of human CYP1A2 by LC-MS analysis; type: ADME
T1 sequence (P05177 whole entry): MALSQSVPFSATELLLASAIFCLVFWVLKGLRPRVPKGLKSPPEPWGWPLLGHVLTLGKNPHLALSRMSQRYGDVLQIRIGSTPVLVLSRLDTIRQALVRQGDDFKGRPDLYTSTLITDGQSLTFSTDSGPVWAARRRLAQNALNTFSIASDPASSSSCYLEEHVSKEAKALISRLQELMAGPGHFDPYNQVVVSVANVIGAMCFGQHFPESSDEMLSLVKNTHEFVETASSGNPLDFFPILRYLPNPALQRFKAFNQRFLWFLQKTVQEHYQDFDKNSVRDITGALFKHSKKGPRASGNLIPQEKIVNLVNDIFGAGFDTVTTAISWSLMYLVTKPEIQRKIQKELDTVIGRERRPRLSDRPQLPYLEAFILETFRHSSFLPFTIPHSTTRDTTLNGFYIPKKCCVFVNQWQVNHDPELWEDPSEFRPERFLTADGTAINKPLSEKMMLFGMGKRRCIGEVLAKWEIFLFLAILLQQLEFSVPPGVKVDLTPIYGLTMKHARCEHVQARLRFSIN

[3] = Chemical stability of compound in DMSO assessed as compound remaining at 10 mg/ml after 1 day at room temperature; type: physicochemical; conditions: read-out: Stability
[4] = target: T2, Alpha-2C adrenergic receptor (Homo sapiens, UniProt P18825); assay: Agonist activity at human wild-type alpha 2C receptor expressed in CHO-K1 cells assessed as cAMP level by HTRF assay; type: functional, cell-based
T2 sequence (P18825 whole entry): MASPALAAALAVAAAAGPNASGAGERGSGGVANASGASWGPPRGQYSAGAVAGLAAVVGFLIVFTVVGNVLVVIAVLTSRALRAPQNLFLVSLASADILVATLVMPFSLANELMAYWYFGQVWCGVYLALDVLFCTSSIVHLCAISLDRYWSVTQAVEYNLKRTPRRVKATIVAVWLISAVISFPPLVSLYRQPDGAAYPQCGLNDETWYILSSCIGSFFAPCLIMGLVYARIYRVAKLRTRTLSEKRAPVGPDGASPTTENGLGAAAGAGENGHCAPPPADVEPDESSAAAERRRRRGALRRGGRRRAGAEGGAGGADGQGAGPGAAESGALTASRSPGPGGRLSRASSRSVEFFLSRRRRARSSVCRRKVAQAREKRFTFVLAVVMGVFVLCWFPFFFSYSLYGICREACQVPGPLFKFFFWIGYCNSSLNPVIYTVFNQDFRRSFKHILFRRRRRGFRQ

[5] = target: T3, Alpha-2A adrenergic receptor (Homo sapiens, UniProt P08913); assay: Antagonist activity at human wild-type alpha 2A receptor expressed in CHO-K1 cells assessed as epinephrine-induced cAMP by HTRF assay; type: functional, cell-based
T3 sequence (P08913 whole entry): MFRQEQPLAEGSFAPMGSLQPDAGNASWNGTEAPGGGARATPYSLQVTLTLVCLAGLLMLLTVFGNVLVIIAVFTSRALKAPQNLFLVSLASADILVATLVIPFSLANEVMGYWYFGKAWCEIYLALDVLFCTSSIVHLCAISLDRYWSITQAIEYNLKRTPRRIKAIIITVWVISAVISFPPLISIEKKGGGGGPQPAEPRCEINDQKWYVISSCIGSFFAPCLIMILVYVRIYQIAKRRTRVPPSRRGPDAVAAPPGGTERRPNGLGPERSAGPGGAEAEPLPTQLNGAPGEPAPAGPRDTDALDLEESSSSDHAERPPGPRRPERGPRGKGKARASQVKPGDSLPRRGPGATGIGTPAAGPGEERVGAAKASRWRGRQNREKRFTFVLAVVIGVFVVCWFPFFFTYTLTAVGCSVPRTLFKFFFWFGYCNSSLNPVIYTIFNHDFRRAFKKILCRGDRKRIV

[6] = target: T4, Cholecystokinin receptor type A (Homo sapiens, UniProt P32238); assay: Agonist activity at human wild-type CCKA receptor expressed in CHO-K1 cells assessed as calcium level by FDSS assay; type: functional, cell-based
T4 sequence (P32238 whole entry): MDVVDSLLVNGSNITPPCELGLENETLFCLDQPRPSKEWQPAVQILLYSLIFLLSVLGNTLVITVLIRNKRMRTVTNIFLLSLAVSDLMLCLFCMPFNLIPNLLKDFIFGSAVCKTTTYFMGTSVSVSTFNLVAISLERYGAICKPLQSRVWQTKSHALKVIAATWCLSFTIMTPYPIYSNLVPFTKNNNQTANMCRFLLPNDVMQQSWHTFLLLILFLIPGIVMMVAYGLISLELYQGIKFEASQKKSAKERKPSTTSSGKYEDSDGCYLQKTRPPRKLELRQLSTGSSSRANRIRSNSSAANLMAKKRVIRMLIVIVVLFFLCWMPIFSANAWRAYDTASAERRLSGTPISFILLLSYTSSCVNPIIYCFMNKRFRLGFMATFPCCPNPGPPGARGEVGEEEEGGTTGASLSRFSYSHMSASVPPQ

[7] = target: 5-hydroxytryptamine receptor 1B (Homo sapiens, UniProt P28222); assay: Antagonist activity at human 5-HT1B receptor expressed in CHO-K1 cells assessed as seretonin-induced cAMP level by HTRF assay; type: functional, cell-based
5-hydroxytryptamine receptor 1B, sequence (P28222 whole entry): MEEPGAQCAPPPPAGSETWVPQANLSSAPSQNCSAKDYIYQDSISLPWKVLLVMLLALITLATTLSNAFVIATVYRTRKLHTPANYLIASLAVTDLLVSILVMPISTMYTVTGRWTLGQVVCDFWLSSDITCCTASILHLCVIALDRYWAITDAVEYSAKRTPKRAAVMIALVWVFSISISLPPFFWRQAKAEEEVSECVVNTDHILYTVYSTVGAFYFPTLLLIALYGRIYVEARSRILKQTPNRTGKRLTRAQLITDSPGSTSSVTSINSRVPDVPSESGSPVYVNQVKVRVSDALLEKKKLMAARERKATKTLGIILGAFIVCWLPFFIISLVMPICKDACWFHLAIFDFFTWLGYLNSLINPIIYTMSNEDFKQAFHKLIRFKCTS

[8] = target: Beta-2 adrenergic receptor (Homo sapiens, UniProt P07550); assay: Antagonist activity at human beta2 receptor expressed in CHO-K1 cells assessed as isoproterenol-induced cAMP level by HTRF assay; type: functional, cell-based
Beta-2 adrenergic receptor, sequence (P07550 whole entry): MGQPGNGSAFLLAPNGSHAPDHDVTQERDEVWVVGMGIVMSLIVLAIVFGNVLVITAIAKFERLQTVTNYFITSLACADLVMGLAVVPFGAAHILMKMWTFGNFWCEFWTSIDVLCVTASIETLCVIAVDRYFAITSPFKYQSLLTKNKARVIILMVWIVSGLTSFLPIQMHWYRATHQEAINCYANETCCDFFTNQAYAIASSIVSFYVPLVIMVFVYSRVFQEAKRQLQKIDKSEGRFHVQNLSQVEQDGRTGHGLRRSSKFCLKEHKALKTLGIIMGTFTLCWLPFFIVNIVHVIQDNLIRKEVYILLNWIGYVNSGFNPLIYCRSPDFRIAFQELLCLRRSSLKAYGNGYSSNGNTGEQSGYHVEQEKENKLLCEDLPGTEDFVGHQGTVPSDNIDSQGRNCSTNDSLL

[9] = target: Cytochrome P450 2C9 (Homo sapiens, UniProt P11712); assay: Inhibition of human CYP2C9 by LC-MS analysis; type: ADME
Cytochrome P450 2C9, sequence (P11712 whole entry): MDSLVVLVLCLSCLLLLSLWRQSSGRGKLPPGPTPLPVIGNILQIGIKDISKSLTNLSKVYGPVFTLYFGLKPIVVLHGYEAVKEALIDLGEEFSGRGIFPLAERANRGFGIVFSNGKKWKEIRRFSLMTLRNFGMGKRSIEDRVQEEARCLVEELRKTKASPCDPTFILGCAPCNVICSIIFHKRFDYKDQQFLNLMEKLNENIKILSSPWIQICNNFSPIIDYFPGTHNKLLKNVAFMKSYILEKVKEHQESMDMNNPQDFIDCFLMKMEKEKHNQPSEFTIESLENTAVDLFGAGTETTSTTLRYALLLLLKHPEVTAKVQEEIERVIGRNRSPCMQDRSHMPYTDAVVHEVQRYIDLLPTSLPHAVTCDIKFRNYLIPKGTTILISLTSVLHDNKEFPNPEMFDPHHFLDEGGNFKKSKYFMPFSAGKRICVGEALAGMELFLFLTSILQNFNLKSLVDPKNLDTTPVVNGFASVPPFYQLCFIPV

[10] = test system: HepG2; assay: Cytotoxicity against human HepG2 cells; type: cell-based
[11] = target: D(2) dopamine receptor (Homo sapiens, UniProt P14416); assay: Antagonist activity at human wild-type D2 receptor expressed in CHO-K1 cells assessed as dopamine-induced cAMP by HTRF assay; type: functional, cell-based
D(2) dopamine receptor, sequence (P14416 whole entry): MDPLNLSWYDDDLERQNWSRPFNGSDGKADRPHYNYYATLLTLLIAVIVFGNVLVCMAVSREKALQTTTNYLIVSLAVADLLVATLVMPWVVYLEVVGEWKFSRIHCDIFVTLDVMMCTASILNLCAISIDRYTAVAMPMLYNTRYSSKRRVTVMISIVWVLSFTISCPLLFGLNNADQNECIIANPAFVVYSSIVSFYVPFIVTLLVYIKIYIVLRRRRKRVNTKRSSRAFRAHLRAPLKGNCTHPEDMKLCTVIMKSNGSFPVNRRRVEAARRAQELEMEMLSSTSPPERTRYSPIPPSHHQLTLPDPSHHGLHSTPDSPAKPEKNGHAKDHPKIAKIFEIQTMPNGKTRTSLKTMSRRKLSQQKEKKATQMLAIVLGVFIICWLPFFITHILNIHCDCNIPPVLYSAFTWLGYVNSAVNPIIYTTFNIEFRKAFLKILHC

[12] = Ratio of drug level in brain to plasma in Swiss mouse at 5 mg/kg, sc; type: ADME, organism-based; conditions: read-out: BPR

Structure (SMILES) | microsomal CLint at 1 µM [1] [µL/min/mg] | IC50 [2] [µM] | remaining at 24 h, 10 mg/ml [3] [%] | EC50 [4] [µM] | IC50 [5] [µM] | EC50 [6] [µM] | IC50 [7] [µM] | IC50 [8] [µM] | IC50 [9] [µM] | EC20 [10] [µM] | IC50 [11] [µM] | Kp [12]
CB1C=Cc2c(cccc2OCC(O)CN(C)C)N1 (centres undefined) | > 346 | > 10 | 97 | > 5.01 | > 5.01 | > 5.01 | > 5.01 | 0.1 | > 10 | 59 | > 5.01 | 19
CB1C=Cc2cccc(OCC(O)CNC(C)C)c2N1 (centres undefined) | 289 | 3.16 | 96 | > 5.01 | > 5.01 | > 5.01 | > 5.01 | 0.501 | > 10 | 18.7 | > 5.01 | 13
